Laboratory results taken from patent US20040009172A1, “Use of anti-TNFalpha antibodies and another drug” (priority 2002, published 2004).

Tests used:
[1] = system: patients with rheumatoid arthritis (RA); assay: Multicenter, randomized, double-blind, placebo-controlled study of D2E7 in RA patients: safety (adverse events); assay type: in vivo, human
Protocol: (§1) A study was designed and conducted to investigate the safety and efficacy of D2E7 40 mg administered every other week to patients with RA whose disease was not adequately treated with their current anti-rheumatic therapies (including accepted DMARDs, NSAIDs, or steroids); and was a multicenter, randomized, double-blind, placebo-controlled study in which D2E7 was subcutaneously (sc) administered every other week for up to 24 weeks at a dosage of 40 mg to patients with rheumatoid arthritis (RA) whose disease was not adequately treated with their current anti-rheumatic therapies. Anti-rheumatic therapies permitted for use during the study included accepted disease-modifying anti-rheumatic drugs (DMARDs), non-steroidal anti-inflammatory drugs (NSAIDs), or steroids. Despite using anti-rheumatic therapies, patients must have had active disease documented at both the screening and baseline visits. Doses of DMARDs, as well as concomitant prednisone (<10 mg daily) and NSAIDs, were required to be stable for at least 28 days prior to screening. Additionally, patients using azathioprine and/or cyclosporine discontinued these therapies and underwent a 28-day washout period before screening. At the baseline visit, patients were randomized to D2E7 or placebo and this signified the start of the 24-week placebo-controlled period. Patients were examined at Weeks 2, 4, 8, 12, 16, 20 and 24 of the study.
D2E7 was supplied in 2-mL glass vials (the concentration of D2E7 in each vial was 25 mg/mL (ie, 40 mg/1.6 mL)), each containing 40 mg D2E7/1.6 mL solution for injection. D2E7 was manufactured and supplied by Ebewe Arzneimittel GmbH, in Unterach, Austria. McKesson, FIBOC Biosciences, in Rockville, Md., USA, packaged, labeled, stored and distributed D2E7 to the investigators at, each site for this study. […]
Adverse events were summarized by frequency, percentage, as well as the rate per 100 patient-years. […] All other efficacy variables were summarized descriptively (statistical characteristics, frequencies, percentages, confidence intervals) and analyzed by exploratory two-sided statistical tests. […]

[2] = system: patients with rheumatoid arthritis (RA); assay: Multicenter, randomized, double-blind, placebo-controlled study of D2E7 in RA patients: efficacy (ACR response); assay type: in vivo, human
Protocol: as §1
Patients were inadequately treated with their current anti-rheumatic therapies and had active RA, defined as ≧6 swollen joints and ≧9 tender joints. Additionally, patients using glucocorticoids were allowed into the study if the dose was equivalent to ≦10 mg/day prednisone and had remained unchanged for at least 28 days.
D2E7 was supplied in 2-mL glass vials (the concentration of D2E7 in each vial was 25 mg/mL (ie, 40 mg/1.6 mL)), each containing 40 mg D2E7/1.6 mL solution for injection. D2E7 was manufactured and supplied by Ebewe Arzneimittel GmbH, in Unterach, Austria. McKesson, FIBOC Biosciences, in Rockville, Md., USA, packaged, labeled, stored and distributed D2E7 to the investigators at, each site for this study. D2E7 was self-administered as a single sc injection of 40 mg every other week for a period of 24 weeks. The concentration of study drug was 25 mg/mL. Placebo/1.6 mL (citrate-phosphate buffer solution without D2E7) was self-administered as a single sc injection every other week for a period of 24 weeks.
Patients continued to receive their pre-study dose of anti-rheumatic therapies. Anti-rheumatic therapies permitted for use during the study included DMARDs (hydroxychloroquine, leflunomide, methotrexate, parenteral gold, oral gold and sulfasalazine, or any combination of these or other DMARDs), NSAIDs and steroids. Doses of these DMARDs as well as concomitant prednisone (≦10 mg daily) and NSAIDs must have been stable for at least 28 days prior to screening.
Efficacy endpoints included: ACR20 response at Week 24; ACR50 and ACR70 at Week 24; AUC (area under the curve) of ACR20, ACR50 and ACR70 from baseline to Week 24; time to first response for ACR20, ACR50 and ACR70; numeric ACR (ACR-N); change from baseline to Week 24 in components of the ACR response criteria (tender joint count [TJC], swollen joint count [SJC], patient assessment of pain, patient and physician global assessments of disease activity, HAQ and C-reactive protein [CRP]); change from baseline to Week 24 in physical function as measured by SF-36, health utilities index (HUI), functional assessment of chronic illness therapy (FACIT) fatigue scale; Euro-QoL questionnaire; multidimensional assessment of fatigue (MAF) scale; subject summary survey; incidence and time to dose increases in background DMARD and/or steroid therapy; institution of new DMARD therapy for lack of clinical response; rheumatoid factor (RF); and morning stiffness.
Adverse events were summarized by frequency, percentage, as well as the rate per 100 patient-years. […]

[3] = added to existing DMARD therapies
[4] = Non-responder, full analysis set excluding Site #7, N = 315
[5] = Week 2, full analysis set excluding Site #7, N = 315
[6] = Week 4, full analysis set excluding Site #7, N = 315
[7] = Week 8, full analysis set excluding Site #7, N = 315
[8] = Week 12, full analysis set excluding Site #7, N = 315
[9] = Week 16, full analysis set excluding Site #7, N = 315
[10] = Week 20, full analysis set excluding Site #7, N = 315
[11] = Week 24, full analysis set excluding Site #7, N = 315
[12] = Week 24, subgroup Three or more DMARDs
[13] = Week 24, subgroup concomitant Antimalarial
[14] = Week 24, subgroup concomitant Leflunomide
[15] = Week 24, subgroup concomitant Methotrexate
[16] = Week 24, subgroup concomitant Sulfasalazine

Substance: D2E7: recombinant, neutralizing human anti-hTNFα antibody; VL region SEQ ID NO: 1, VH region SEQ ID NO: 2
- Safety ([1]; 40 mg, alone or in combination with other DMARDs): safe
- Incidence or profile of adverse events [1, 3]: not associated with any major changes in the incidence or profile of adverse events
- Tolerability [1, 3]: generally well-tolerated
- ACR50 response, % of patients responding ([2]; LOCF Week 24, N = 315): (30.2) %
- ACR50 response, N of patients responding ([2]; LOCF Week 24, N = 315): 95
- ACR70 response, % of patients responding ([2]; LOCF Week 24, N = 315): (15.2) %
- ACR70 response, N of patients responding ([2]; LOCF Week 24, N = 315): 48
- ACR-N Mean ± SD ([2]; LOCF Week 24, N = 315): 21.2 ± 55.3
- Time to response ACR20: % of patients, Non-responder [2, 4]: (19.4) %
- Time to response ACR20: N of patients, Non-responder [2, 4]: 61
- Time to response ACR50: % of patients, Non-responder [2, 4]: (50.8) %
- Time to response ACR50: N of patients, Non-responder [2, 4]: 160
- Time to response ACR70: % of patients, Non-responder [2, 4]: (73.3) %
- Time to response ACR70: N of patients, Non-responder [2, 4]: 231
- Time to response ACR20: % of patients responding for the first time [2, 5]: (33.7) %
- Time to response ACR20: N of patients responding for the first time [2, 5]: 106
- Time to response ACR50: % of patients responding for the first time [2, 5]: (9.8) %
- Time to response ACR50: N of patients responding for the first time [2, 5]: 31
- Time to response ACR70: % of patients responding for the first time [2, 5]: (2.9) %
- Time to response ACR70: N of patients responding for the first time [2, 5]: 9
- Time to response ACR20: % of patients responding for the first time [2, 6]: (16.2) %
- Time to response ACR20: N of patients responding for the first time [2, 6]: 51
- Time to response ACR50: % of patients responding for the first time [2, 6]: (9.8) %
- Time to response ACR50: N of patients responding for the first time [2, 6]: 31
- Time to response ACR70: % of patients responding for the first time [2, 6]: (3.8) %
- Time to response ACR70: N of patients responding for the first time [2, 6]: 12
- Time to response ACR20: % of patients responding for the first time [2, 7]: (16.5) %
- Time to response ACR20: N of patients responding for the first time [2, 7]: 52
- Time to response ACR50: % of patients responding for the first time [2, 7]: (10.8) %
- Time to response ACR50: N of patients responding for the first time [2, 7]: 34
- Time to response ACR70: % of patients responding for the first time [2, 7]: (3.8) %
- Time to response ACR70: N of patients responding for the first time [2, 7]: 12
- Time to response ACR20: % of patients responding for the first time [2, 8]: (5.4) %
- Time to response ACR20: N of patients responding for the first time [2, 8]: 17
- Time to response ACR50: % of patients responding for the first time [2, 8]: (6.3) %
- Time to response ACR50: N of patients responding for the first time [2, 8]: 20
- Time to response ACR70: % of patients responding for the first time [2, 8]: (5.7) %
- Time to response ACR70: N of patients responding for the first time [2, 8]: 18
- Time to response ACR20: % of patients responding for the first time [2, 9]: (4.1) %
- Time to response ACR20: N of patients responding for the first time [2, 9]: 13
- Time to response ACR50: % of patients responding for the first time [2, 9]: (6.3) %
- Time to response ACR50: N of patients responding for the first time [2, 9]: 20
- Time to response ACR70: % of patients responding for the first time [2, 9]: (5.7) %
- Time to response ACR70: N of patients responding for the first time [2, 9]: 18
- Time to response ACR20: % of patients responding for the first time [2, 10]: (3.8) %
- Time to response ACR20: N of patients responding for the first time [2, 10]: 12
- Time to response ACR50: % of patients responding for the first time [2, 10]: (2.9) %
- Time to response ACR50: N of patients responding for the first time [2, 10]: 9
- Time to response ACR70: % of patients responding for the first time [2, 10]: (2.2) %
- Time to response ACR70: N of patients responding for the first time [2, 10]: 7
- ACR20 response, % of patients ([2]; Week 24, 40 mg sc every other week added to current anti-rheumatic therapies, N = 315): 53.0%
- ACR20 response, N of patients ([2]; Week 24, 40 mg sc every other week, N = 315): 167
- ACR50 response, N of patients responding ([2]; Week 24, N = 315): 92
- ACR70 response, N of patients responding ([2]; Week 24, N = 315): 47
- ACR-N Mean ± SD ([2]; Week 24, N = 315): 20.3 ± 55.2
- Time to response ACR20: % of patients responding for the first time [2, 11]: (1.0) %
- Time to response ACR20: N of patients responding for the first time [2, 11]: 3
- Time to response ACR50: % of patients responding for the first time [2, 11]: (3.2) %
- Time to response ACR50: N of patients responding for the first time [2, 11]: 10
- Time to response ACR70: % of patients responding for the first time [2, 11]: (2.5) %
- Time to response ACR70: N of patients responding for the first time [2, 11]: 8
- ACR20 % Response ([2]; Week 24, subgroup No DMARD): 50.0%
- ACR50 % ([2]; Week 24, subgroup No DMARD): 27.8%
- ACR70 % ([2]; Week 24, subgroup No DMARD): 18.5%
- ACR-N Mean ± SD ([2]; Week 24, subgroup No DMARD): 12.8 ± 68.2
- ACR20 % Response ([2]; Week 24, subgroup One DMARD): 55.4%
- ACR50 % ([2]; Week 24, subgroup One DMARD): 31.0%
- ACR70 % ([2]; Week 24, subgroup One DMARD): 16.3%
- ACR-N Mean ± SD ([2]; Week 24, subgroup One DMARD): 22.8 ± 56.0
- ACR20 % Response ([2]; Week 24, subgroup Other DMARDs): 52.0%
- ACR50 % ([2]; Week 24, subgroup Other DMARDs): 24.0%
- ACR70 % ([2]; Week 24, subgroup Other DMARDs): 16.0%
- ACR-N Mean ± SD ([2]; Week 24, subgroup Other DMARDs): 25.3 ± 33.9
- ACR20 % Response [2, 12]: 45.5%
- ACR50 % [2, 12]: 18.2%
- ACR70 % [2, 12]: 9.1%
- ACR-N Mean ± SD [2, 12]: 20.1 ± 37.2
- ACR20 % Response ([2]; Week 24, subgroup Two DMARDs): 50.0%
- ACR50 % ([2]; Week 24, subgroup Two DMARDs): 27.3%
- ACR70 % ([2]; Week 24, subgroup Two DMARDs): 9.1%
- ACR-N Mean ± SD ([2]; Week 24, subgroup Two DMARDs): 19.5 ± 42.3
- ACR20 % Response [2, 13]: 50.7%
- ACR50 % [2, 13]: 29.3%
- ACR70 % [2, 13]: 12.0%
- ACR-N Mean ± SD [2, 13]: 20.0 ± 45.5
- ACR20 % Response [2, 14]: 33.3%
- ACR50 % [2, 14]: 14.3%
- ACR70 % [2, 14]: 0.0%
- ACR-N Mean ± SD [2, 14]: −0.5 ± 77.5
- ACR20 % Response [2, 15]: 56.7%
- ACR50 % [2, 15]: 30.9%
- ACR70 % [2, 15]: 15.2%
- ACR-N Mean ± SD [2, 15]: 26.5 ± 42.3
- ACR20 % Response [2, 16]: 58.6%
- ACR50 % [2, 16]: 34.5%
- ACR70 % [2, 16]: 17.2%
- ACR-N Mean ± SD [2, 16]: 21.4 ± 53.9
- Subgroup analyses: ACR20, ACR50, ACR70, ACR-N and their AUC ([2]; concomitant methotrexate, antimalarial treatments, sulfasalazine, other DMARDs, or 0, 1, 2, or ≧3 DMARDs, vs placebo): greater improvement
- Response compared to placebo ([2]; in combination with methotrexate, antimalarial treatments, sulfasalazine, other DMARDs, or 0, 1, 2, or ≧3 DMARDs): higher response compared to placebo
- Improvement in RA ([2]; patients inadequately treated with existing DMARD therapies): significant improvement in RA
- Time to response and AUC for ACR20, ACR50, ACR70; AUC for ACR-N; Euro-QoL, RF, MAF scale ([2]; vs placebo): improvement in therapeutic response over placebo
